Drawing on patent US10092584B2 (Achillion Pharmaceuticals, Inc., priority 2015, dated 2018), this text covers IC50 for 29 compounds.

The structures appear in SMILES notation. Structures can show the parent of a compound that is named as a salt.

The term IC50 denotes the concentration that inhibits the measured activity by half.

The target in this assay is T1, Human Factor D (Homo sapiens, UniProt P00746).
T1 construct: purified from human serum; purchased Complement Technology, Inc; host or cells: human serum
T1 sequence (P00746 26-253): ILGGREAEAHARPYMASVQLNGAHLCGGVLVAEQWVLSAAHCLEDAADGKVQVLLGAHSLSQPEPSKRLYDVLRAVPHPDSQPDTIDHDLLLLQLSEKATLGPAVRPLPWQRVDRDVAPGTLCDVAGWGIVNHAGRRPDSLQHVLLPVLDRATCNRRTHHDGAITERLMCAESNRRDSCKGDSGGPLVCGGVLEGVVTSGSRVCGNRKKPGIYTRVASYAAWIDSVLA
Put plainly: Human Factor D assay (Example 8). The assay is classed as biochemical. As to conditions: Table 3; Human Factor D 80 nM, substrate Z-L-Lys-SBzl; read-out: IC50 (Stars). An outline of the steps:
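Factor D (from human serum) 80 nM final + cpd, 5 min RT, 50 mM Tris/1M NaCl pH 7.5; add Z-L-Lys-SBzl 100 μM and DTNB 100 μM final. IC50 by nonlinear fit of rates vs [cpd].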
Take `NC(=O)c1nn(CC(=O)N2CC(F)(F)C[C@H]2C(=O)Nc2cccc(-c3ccccc3Cl)c2F)c2ccccc12` [Compound 353, (S)-1-(2-(2-((2′-chloro-2-fluoro-[1,1′-biphenyl]-3-yl)carbamoyl)-4,4-difluoropyrrolidin-1-yl)-2-oxoethyl)-1H-indazole-3-carboxamide]: the IC50 is below 1000 nM.

As to `NC(=O)c1nn(CC(=O)N2C[C@@H](O)C[C@H]2C(=O)Nc2cccc(-c3ccccc3Cl)c2F)c2ccccc12` [Compound 354, 1-(2-((2S,4S)-2-((2′-chloro-2-fluoro-[1,1′-biphenyl]-3-yl)carbamoyl)-4-hydroxypyrrolidin-1-yl)-2-oxoethyl)-1H-indazole-3-carboxamide], the IC50 is below 1000 nM.

For the compound `NC(=O)c1nn(CC(=O)N2CC(=O)C[C@H]2C(=O)Nc2cccc(-c3ccccc3Cl)c2F)c2ccccc12` [Compound 355, (S)-1-(2-(2-((2′-chloro-2-fluoro-[1,1′-biphenyl]-3-yl)carbamoyl)-4-oxopyrrolidin-1-yl)-2-oxoethyl)-1H-indazole-3-carboxamide], the IC50 is below 1000 nM.

For the compound `NC(=O)c1nn(CC(=O)N2CC[C@@H](N)[C@H]2C(=O)Nc2cccc(-c3ccccc3Cl)c2F)c2ccccc12` [Compound 356, 1-(2-((2S,3R)-3-amino-2-((2′-chloro-2-fluoro-[1,1′-biphenyl]-3-yl)carbamoyl)pyrrolidin-1-yl)-2-oxoethyl)-1H-indazole-3-carboxamide], the IC50 is below 1000 nM.

On to `NC(=O)c1nn(CC(=O)N2C[C@H](F)C[C@H]2C(=O)Nc2nc3cccc(Cl)c3[nH]2)c2ccccc12` [Compound 360, 1-(2-((2S,4R)-2-((7-chloro-1H-benzo[d]imidazol-2-yl)carbamoyl)-4-fluoropyrrolidin-1-yl)-2-oxoethyl)-1H-indazole-3-carboxamide], for which the IC50 was below 1000 nM.

In the case of `CC(=O)c1nn(CC(=O)N2C[C@H](F)C[C@H]2C(=O)Nc2cccc(-c3ccccc3Cl)c2F)c2cc(C(=O)O)sc12` [Compound 363], the IC50 was below 1000 nM.

Regarding `CC(=O)c1nc(CC(=O)N2C[C@H](F)C[C@H]2C(=O)Nc2cccc(-c3ccccc3Cl)c2F)n2ccccc12` [Compound 372, (2S,4R)-1-(2-(1-Acetylimidazo[1,5-a]pyridin-3-yl)acetyl)-N-(2′-chloro-2-fluoro-[1,1′-biphenyl]-3-yl)-4-fluoropyrrolidine-2-carboxamide], the IC50 was below 1000 nM.

`NC(=O)c1nc(CC(=O)N2C[C@H](F)C[C@H]2C(=O)Nc2cccc(-c3ccccc3Cl)c2F)n2ccccc12` [Compound 373, 3-(2-((2S,4R)-2-((2′-Chloro-2-fluoro-[1,1′-biphenyl]-3-yl)carbamoyl)-4-fluoropyrrolidin-1-yl)-2-oxoethyl)imidazo[1,5-a]pyridine-1-carboxamide]: the IC50 is below 1000 nM.

Consider `NC(=O)c1nn(CC(=O)N2CC[C@@H](O)[C@H]2C(=O)Nc2cccc(-c3ccccc3Cl)c2F)c2ccccc12` [Compound 374], for which the IC50 was below 1000 nM.

As for `NC(=O)c1cn(CC(=O)N2CCS[C@H]2C(=O)Nc2cccc(-c3ccccc3Cl)c2F)c2ccccc12` [Compound 375, (S)-3-(2-(3-carbamoyl-1H-indol-1-yl)acetyl)-N-(2′-chloro-2-fluoro-[1,1′-biphenyl]-3-yl)thiazolidine-2-carboxamide], the IC50 is below 1000 nM.

In the case of `CC(=O)c1cn(CC(=O)N2C[C@H](F)C[C@H]2C(=O)NCc2cccc(Cl)c2F)c2cc(C(=N)N)ccc12` [Compound 382, (2S,4R)-1-(2-(3-Acetyl-6-carbamimidoyl-1H-indol-1-yl)acetyl)-N-(3-chloro-2-fluorobenzyl)-4-fluoropyrrolidine-2-carboxamide TFA], the IC50 is below 1000 nM.

Regarding `Cc1nc2c(s1)c(C(N)=O)nn2CC(=O)N1C[C@H](F)C[C@H]1C(=O)Nc1cccc(-c2ccccc2Cl)c1F` [Compound 383, 1-(2-((2S,4R)-2-(2′-Chloro-2-fluorobiphenyl-3-ylcarbamoyl)-4-fluoropyrrolidin-1-yl)-2-oxoethyl)-5-methyl-1H-pyrazolo[3,4-d]thiazole-3-carboxamide], the IC50 is below 1000 nM.

With `CC(=O)c1nn(CC(=O)N2C[C@H](F)C[C@H]2C(=O)Nc2cccc(Br)n2)c2ccccc12` [Compound 388, (2S,4R)-1-(2-(3-acetyl-1H-indazol-1-yl)acetyl)-N-(6-bromopyridin-2-yl)-4-fluoropyrrolidine-2-carboxamide], the concentration for half-maximal inhibition (IC50) is below 1000 nM.

Regarding `COC(=O)/C=C/c1cccc(NC(=O)[C@@H]2C[C@@H](F)CN2C(=O)Cn2nc(C(N)=O)c3ccccc32)c1F` [Compound 389, (E)-methyl 3-(3-((2S,4R)-1-(2-(3-carbamoyl-1H-indazol-1-yl)acetyl)-4-fluoropyrrolidine-2-carboxamido)-2-fluorophenyl) acrylate], the IC50 lay in the range of 1000 to 10000 nM.

For the compound `CC(=O)c1nn(CC(=O)N2C[C@H](F)C[C@H]2C(=O)Nc2cccc(Br)n2)c2ccc(O)cc12` [Compound 395, (2S,4R)-1-(2-(3-acetyl-5-hydroxy-1H-indazol-1-yl)acetyl)-N-(6-bromopyridin-2-yl)-4-fluoropyrrolidine-2-carboxamide], the IC50 is below 1000 nM.

In the case of `CC(=O)c1nn(CC(=O)N2[C@@H]3C[C@@H]3C[C@H]2C(=O)NC/C(F)=C(/C)c2cccc(Cl)c2)c2ccccc12` [Compound 396], the IC50 is below 1000 nM.

For the compound `CC(=O)c1nn(CC(=O)N2C[C@H](F)C[C@H]2C(=O)NCC23CC4CC(CC(C4)C2)C3)c2ccccc12` [Compound 397, (2S,4R)-1-(2-(3-acetyl-1H-indazol-1-yl)acetyl)-N-(((3S,5S,7S)-adamantan-1-yl)methyl)-4-fluoropyrrolidine-2-carboxamide], the IC50 is below 1000 nM.

As to `CC(=O)c1nn(CC(=O)N2C[C@H](F)C[C@H]2C(=O)Nc2cccc(Br)n2)c2cnc(Cl)cc12` [Compound 399, (2S,4R)-1-(2-(3-Acetyl-5-chloro-1H-pyrazolo[3,4-c]pyridin-1-yl)acetyl)-N-(6-bromopyridin-2-yl)-4-fluoropyrrolidine-2-carboxamide], the IC50 is below 1000 nM.

Turning to `CC(=O)c1nn(CC(=O)N2C[C@H](F)C[C@H]2C(=O)Nc2cccc(-c3ccc4c(c3)CCN4)c2F)c2ccccc12` [Compound 435, (2S,4R)-1-(2-(3-Acetyl-1H-indazol-1-yl)acetyl)-4-fluoro-N-(2-fluoro-3-(indolin-5-yl)phenyl)pyrrolidine-2-carboxamide], the IC50 is below 1000 nM.

For the compound `CC(=O)c1nn(CC(=O)N2C[C@H](F)C[C@H]2C(=O)Nc2cccc(-c3ccc4c(c3)NCCN4)c2F)c2ccccc12` [Compound 436], the IC50 is below 1000 nM.

Consider `CC(=O)c1nn(CC(=O)N2C[C@H](F)C[C@H]2C(=O)Nc2cccc(-c3ccc4c(c3)NCC4)c2F)c2ccccc12` [Compound 437, (2S,4R)-1-(2-(3-acetyl-1H-indazol-1-yl)acetyl)-4-fluoro-N-(2-fluoro-3-(indolin-6-yl)phenyl)pyrroli-dine-2-carboxamide], for which the IC50 was below 1000 nM.

On to `CC(=O)c1nn(CC(=O)N2C[C@H](F)C[C@H]2C(=O)Nc2cccc(-c3ccc4c(c3)CNC4)c2F)c2ccccc12` [Compound 439, (2S,4R)-1-(2-(3-Acetyl-1H-indazol-1-yl)acetyl)-4-fluoro-N-(2-fluoro-3-(isoindolin-5-yl)phenyl)pyrrolidine-2-carboxamide], for which the IC50 is below 1000 nM.

For the compound `NC(=O)c1nn(CC(=O)N2C[C@H](F)C[C@H]2C(=O)Nc2cccc(-c3ccc4c(c3)NCCO4)c2F)c2ccccc12` [Compound 442, 1-(2-((2S,4R)-2-((3-(3,4-Dihydro-2H-benzo[b][1,4]oxazin-6-yl)-2-fluorophenyl)carbamoyl)-4-fluoropyrrolidin-1-yl)-2-oxoethyl)-1H-indazole-3-carboxamide], the IC50 was below 1000 nM.

On to `NC(=O)c1nn(CC(=O)N2C[C@H](F)C[C@H]2C(=O)Nc2cccc(-c3ccc4c(c3Cl)NCCN4)c2F)c2ccccc12` [Compound 443, 1-(2-((2S,4R)-2-((3-(5-Chloro-1,2,3,4-tetrahydroquinoxalin-6-yl)-2-fluorophenyl)carbamoyl)-4-fluoropyrrolidin-1-yl)-2-oxoethyl)-1H-indazole-3-carboxamide], for which the IC50 was below 1000 nM.

Regarding `CC(=O)c1nn(CC(=O)N2C[C@H](F)C[C@H]2C(=O)Nc2cccc(-c3ccc4c(c3Cl)NCCN4)c2F)c2ccccc12` [Compound 445, (2S,4R)-1-(2-(3-Acetyl-1H-indazol-1-yl)acetyl)-N-(3-(5-chloro-1,2,3,4-tetrahydroquinoxalin-6-yl)-2-fluorophenyl)-4-fluoropyrrolidine-2-carboxamide], the half-inhibitory concentration (IC50) is below 1000 nM.

On to `CC(=O)c1nn(CC(=O)N2C[C@H](F)C[C@H]2C(=O)Nc2cccc(-c3ccc4c(c3)CCCN4)c2F)c2ccccc12` [Compound 449, (2S,4R)-1-(2-(3-Acetyl-1H-indazol-1-yl)acetyl)-4-fluoro-N-(2-fluoro-3-(1,2,3,4-tetrahydroquinolin-6-yl)phenyl)pyrrolidine-2-carboxamide], for which the half-inhibitory concentration (IC50) is below 1000 nM.

As for `CC(=O)c1nn(CC(=O)N2C[C@H](F)C[C@H]2C(=O)Nc2cccc(-c3ccc4c(c3)NCCC4)c2F)c2ccccc12` [Compound 450, (2S,4R)-1-(2-(3-Acetyl-1H-indazol-1-yl)acetyl)-4-fluoro-N-(2-fluoro-3-(1,2,3,4-tetrahydroquinolin-7-yl)phenyl)pyrrolidine-2-carboxamide], the IC50 was below 1000 nM.

Consider `CC(=O)c1nn(CC(=O)N2C[C@H](F)C[C@H]2C(=O)Nc2cccc(-c3ccc4c(c3)CNCC4)c2F)c2ccccc12` [Compound 451, (2S,4R)-1-(2-(3-Acetyl-1H-indazol-1-yl)acetyl)-4-fluoro-N-(2-fluoro-3-(1,2,3,4-tetrahydroisoquinolin-7-yl)phenyl)pyrrolidine-2-carboxamide], for which the IC50 was below 1000 nM.

Take `O=C(NCc1cccc(Cl)c1F)[C@@H]1C[C@@H](F)CN1C(=O)Cn1cc(-c2cnco2)c2ccccc21` [Compound 452, (2S,4R)—N-(3-chloro-2-fluorobenzyl)-4-fluoro-1-(2-(3-(oxazol-5-yl)-1H-indol-1-yl)acetyl)pyrrolidine-2-carboxamide]: the IC50 is below 1000 nM.
